Experimental findings from patent publication US20250042853A1, “BICYCLIC COMPOUND AND APPLICATION THEREOF” (BETTA PHARMACEUTICALS CO., LTD, priority 2021, published 2025) are described below.

One may read the pIC50 as the IC50 on a negative log10 scale, so that one unit is a factor of ten.

pIC50: −log10 of the molar value.

One assay relates to VEGFA. As to the kind of experiment: VEGFA ELISA assay (IC50). In kind it is cell-based. The settings on record: Homo sapiens, 786-0, 786-O cells, 24 h, VEGFA in culture supernatant by ELISA. As for the experimental part:
786-O cells in the logarithmic growth phase were inoculated into a 96-well plate at a cell concentration of 65,000 cells per ml of culture liquid, 180 μL per well. The compounds were diluted to the corresponding concentrations, and 20 μL of compound solutions of various concentrations were added to the corresponding cell wells, so that the final concentrations of the compounds were 1.5 nM, 4.6 nM, 13.7 nM, 41.2 nM, 123.5 nM, 370.4 nM, 1111.1 nM, 3333.3 nM, and 10000 nM, respectively. After culturing for 24 h, the cell culture supernatant was collected and the VEGFA concentration was determined using an ELISA kit (purchased from Abeam). Finally, the reaction was terminated and the absorbance value of each well was measured at a wavelength of 450 nm using an ELISA reader. The IC50 values were calculated by GraphPadPrism. CellTiter-Glo reagent was used to measure cell viability.
For orientation: An ELISA detects its analyte on a solid surface through an enzyme-linked reagent.

A further assay concerns 786-O-HIF2α-Luc cells. The experiment in a line: Luciferase assay (HIF2α reporter gene cells). In kind it is cell-based. To be noted: 18-20 h, luminescence. As for the experimental part:
The luciferase LUC gene was stably transfected into 786-0 cells (purchased from ATCC) using Lipofectamine 3000 transfection reagent (purchased from Invitrogen) to construct HIF2α reporter gene cells (786-O-HIF2α-Luc cells). The experiment was performed when 786-O-HIF2α-Luc cells were in the logarithmic growth phase, the culture medium (RPMI MEDIUM 1640, purchased from Invitrogen) was discarded, and the cells were rinsed three times with PBS; trypsin (TrypLE, purchased from Invitrogen) was added to digest the cells, and the digestion was terminated with culture medium, 10% fetal bovine serum, 1% penicillin, and streptomycin. The cells were collected by centrifugation, and washed twice with PBS to remove phenol red in the culture medium. The cells were resuspended to an appropriate concentration. The cell density and viability were measured, to ensure that the cells with a viability of at least 90% were used in the assay.
The compounds at a gradient concentration were transferred into 384 wells using Echo550 (non-contact acoustic pipetting system, purchased from Labcyte), 25 nL/well. The cells were seeded into 384-well plates, with 4500 cells/well and 25 μL of culture medium, and the final concentrations of the compounds were 10000 nM, 3333 nM, 1111 nM, 370 nM, 123 nM, 41.1 nM, 13.7 nM, 4.6 nM, 1.5 nM, and 0.5 nM, respectively. The cells were cultured for 18-20 h under conditions of 37° C. and 5% CO2. Steady-Glo™ luciferase assay system (purchased from Promega) was added to a 384-well plate, 25 μL/well. Luminescence values were detected using Envision. The inhibition rate % was calculated based on the RLU (Record Luminescence) signal value of each well, and then the IC50 values of the corresponding compounds were calculated by fitting using Graphpad 8.0.
The IC50 data of the exemplary examples are provided in Table 2, where A stands for IC50≤0.1 μM; B stands for 0.1 μM<IC50≤0.5 μM; and C stands for IC50>0.5 μM.
For orientation: In a reporter assay the amount or activity of a reporter protein is the signal.

In the case of `O=S(=O)(c1cn(-c2ccc(F)c(C(F)F)c2)c2c1[C@H](O)C(F)(F)CC2)C(F)F` [Example 6, (S)-1-(3-(difluoromethyl)-4-fluorophenyl)-3-((difluoromethyl)sulfonyl)-5,5-difluoro-4,5,6,7-tetrahydro-1H-indol-4-ol], the pIC50 in the assay with VEGFA was 7.96; with 786-O-HIF2α-Luc cells, 7.42. `N#Cc1cc(-n2cc(S(=O)(=O)CF)c3c2CCC(F)(F)[C@H]3O)ccc1F` [Example 11, (S)-5-(5,5-difluoro-3-((fluoromethyl)sulfonyl)-4-hydroxyl-4,5,6,7-tetrahydro-1H-indol-1-yl)-2-fluorobenzonitrile]: the values for the pIC50 in the assay with VEGFA and in the assay with 786-O-HIF2α-Luc cells (class symbols) were 7.57 and 6.30 to 7.00, respectively. The like results for `O=S(=O)(c1cn(-c2ccc(F)c(C(F)F)c2)c2c1[C@H](O)C(F)(F)CC2)C(F)(F)F` [Example 12, (S)-1-(3-(difluoromethyl)-4-fluorophenyl)-5,5-difluoro-3-((trifluoromethyl)sulfonyl)-4,5,6,7-tetrahydro-1H-indol-4-ol] were, in that order, 8.00 and at least 7.00. On to `O=S(=O)(CF)c1cn(-c2ccc(F)c(C(F)F)c2)c2c1[C@H](O)C(F)(F)CC2` [Example 14, (S)-1-(3-(difluoromethyl)-4-fluorophenyl)-5,5-difluoro-3-((fluoromethyl)sulfonyl)-4,5,6,7-tetrahydro-1H-indol-4-ol], for which the pIC50 in the assay on VEGFA is 7.40; in the assay on 786-O-HIF2α-Luc cells it was 7.27. The like results for `O=S(=O)(c1cn(-c2ccc(F)c(C(F)(F)F)c2)c2c1[C@H](O)C(F)(F)CC2)C(F)(F)F` [Example 23, (S)-5,5-difluoro-1-(4-fluoro-3-(trifluoromethyl)phenyl)-3-((trifluoromethyl)sulfonyl)-4,5,6,7-tetrahydro-1H-indol-4-ol] were, in that order, 7.96 and 7.40. As to `O=S(=O)(c1cn(-c2ccc(F)c(C(F)F)c2)c2c1[C@H](O)CCC2)C(F)F` [Example 32, (R)-1-(3-(difluoromethyl)-4-fluorophenyl)-3-((difluoromethyl)sulfonyl)-4,5,6,7-tetrahydro-1H-indol-4-ol], the figures for the pIC50 in the assay with VEGFA and with 786-O-HIF2α-Luc cells (class symbols) were 7.21 and 6.30 to 7.00, respectively. Regarding `N#Cc1ccc(-n2cc(S(=O)(=O)C(F)(F)F)c3c2CCC(F)(F)[C@H]3O)cc1C#N` [Example 42, (S)-4-(5,5-difluoro-4-hydroxyl-3-((trifluoromethyl)sulfonyl)-4,5,6,7-tetrahydro-1H-indol-1-yl)phthalonitrile], the pIC50 in the assay on VEGFA is 7.13. The compound `N#Cc1ccc(-n2cc(S(=O)(=O)C(F)F)c3c2CCC(F)(F)[C@H]3O)cc1C(F)F` [Example 43, (S)-2-(difluoromethyl)-4-(3-((difluoromethyl)sulfonyl)-5,5-difluoro-4-hydroxyl-4,5,6,7-tetrahydro-1H-indol-1-yl)benzonitrile] gave a pIC50 with VEGFA (class symbols) of at least 6.30.

In the case of `N#Cc1ccc(-n2cc(S(=O)(=O)CF)c3c2CCC(F)(F)[C@H]3O)cc1C(F)F` [Example 44, (S)-4-(5,5-difluoro-3-((fluoromethyl)sulfonyl)-4-hydroxyl-4,5,6,7-tetrahydro-1H-indol-1-yl)-2-(difluoromethyl) benzonitrile], the pIC50 in the assay on VEGFA (class symbols) was at least 6.30. In turn, `N#Cc1ccc(-n2cc(S(=O)(=O)CF)c3c2CCC(F)(F)[C@H]3O)cc1C#N` [Example 45, (S)-4-(5,5-difluoro-3-((fluoromethyl)sulfonyl)-4-hydroxyl-4,5,6,7-tetrahydro-1H-indol-1-yl)phthalonitrile] had a negative logarithm of the IC50 (pIC50) with VEGFA (class symbols) of at least 6.30.

Regarding `N#Cc1ccc(-n2cc(C(F)(F)C(F)(F)F)c3c2CCC(F)(F)[C@H]3O)cc1C#N` [Example 46, (S)-4-(5,5-difluoro-4-hydroxyl-3-(perfluoroethyl)-4,5,6,7-tetrahydro-1H-indol-1-yl)phthalonitrile], in the assay on VEGFA (class symbols), the pIC50 was at least 6.30. In the case of `N#CC(F)S(=O)(=O)c1cn(-c2ccc(F)c(C(F)F)c2)c2c1[C@H](O)C(F)(F)CC2` (stereo partly drawn) [Example 47, 2-(((S)-1-(3-(difluoromethyl)-4-fluorophenyl)-5,5-difluoro-4-hydroxyl-4,5,6,7-tetrahydro-1H-indol-3-yl)sulfonyl)-2-fluoroacetonitrile], the pIC50 with VEGFA was 8.10. In the assay on VEGFA, `CCOC(=O)C(F)(F)c1cn(-c2ccc(F)c(C(F)F)c2)c2c1[C@H](O)C(F)(F)CC2` [Example 48, ethyl (S)-2-(1-(3-(difluoromethyl)-4-fluorophenyl)-5,5-difluoro-4-hydroxyl-4,5,6,7-tetrahydro-1H-indol-3-yl)-2,2-difluoroacetate] gave a pIC50 of 5.79. Same read-out and setting: under `N#CC(F)(F)c1cn(-c2ccc(F)c(C(F)F)c2)c2c1[C@H](O)C(F)(F)CC2` [Example 49, (S)-2-(1-(3-(difluoromethyl)-4-fluorophenyl)-5,5-difluoro-4-hydroxyl-4,5,6,7-tetrahydro-1H-indol-3-yl)-2,2-difluoroacetonitrile] stands 7.00; under `O[C@H]1c2c(-c3nccs3)cn(-c3ccc(F)c(C(F)F)c3)c2CCC1(F)F` [Example 51, (S)-1-(3-(difluoromethyl)-4-fluorophenyl)-5,5-difluoro-3-(thiazol-2-yl)-4,5,6,7-tetrahydro-1H-indol-4-ol], 5.90.

In the assay with VEGFA (class symbols), `CC(C#N)S(=O)(=O)c1cn(-c2ccc(F)c(C(F)F)c2)c2c1[C@H](O)C(F)(F)CC2` (stereo partly drawn) [Example 57, 2-(((S)-1-(3-(difluoromethyl)-4-fluorophenyl)-5,5-difluoro-4-hydroxyl-4,5,6,7-tetrahydro-1H-indol-3-yl)sulfonyl) propanenitrile] had a negative-log IC50 (pIC50) of at least 6.30. Consider `N#CC1(S(=O)(=O)c2cn(-c3ccc(F)c(C(F)F)c3)c3c2[C@H](O)C(F)(F)CC3)CC1` [Example 58, (S)-1-((1-(3-(difluoromethyl)-4-fluorophenyl)-5,5-difluoro-4-hydroxyl-4,5,6,7-tetrahydro-1H-indol-3-yl)sulfonyl)cyclopropane-1-nitrile], for which, in the assay with VEGFA, the pIC50 was 6.19. Compound `O=S(=O)(CF)c1cn(-c2ccc(F)c(C(F)F)c2)c2c1[C@@H](O)C(F)(F)CC2` [Example 61, (R)-1-(3-(difluoromethyl)-4-fluorophenyl)-5,5-difluoro-3-((fluoromethyl)sulfonyl)-4,5,6,7-tetrahydro-1H-indol-4-ol] gave a pIC50 in the assay with VEGFA (class symbols) of at least 6.30.

`NC(=O)c1cn(-c2ccc(F)c(C(F)F)c2)c2c1[C@H](O)C(F)(F)CC2` [Example 62, (S)-1-(3-(difluoromethyl)-4-fluorophenyl)-5,5-difluoro-4-hydroxyl-4,5,6,7-tetrahydro-1H-indole-3-carboxamide] gave a pIC50 with VEGFA (class symbols) of at least 6.30. In turn, `O=S(=O)(c1cn(-c2ccc(F)c(C(F)F)c2)c2c1[C@H](O)[C@H](F)CC2)C(F)F` [Example 63, (4S,5R)-1-(3-(difluoromethyl)-4-fluorophenyl)-3-((difluoromethyl)sulfonyl)-5-fluoro-4,5,6,7-tetrahydro-1H-indol-4-ol] showed a pIC50 in the assay with VEGFA of 7.30. On the same count and under the same terms, under `O=S(=O)(c1cn(-c2ccc(F)c(C(F)F)c2)c2c1[C@H](O)[C@@H](F)CC2)C(F)F` [Example 64, (4S,5S)-1-(3-(difluoromethyl)-4-fluorophenyl)-3-((difluoromethyl)sulfonyl)-5-fluoro-4,5,6,7-tetrahydro-1H-indol-4-ol] stands 7.48; under `N#Cc1ccc(-n2cc(S(=O)(=O)C(F)(F)F)c3c2CCC[C@H]3O)cc1C(F)F` [Example 65, (R)-2-(difluoromethyl)-4-(4-hydroxyl-3-((trifluoromethyl)sulfonyl)-4,5,6,7-tetrahydro-1H-indol-1-yl)benzonitrile], 7.52. As for `O[C@H]1c2c(C(F)(F)F)cn(-c3ccc(F)cc3F)c2CCC1(F)F` [Example 72, (S)-1-(2,4-difluorophenyl)-5,5-difluoro-3-(trifluoromethyl)-4,5,6,7-tetrahydro-1H-indol-4-ol], in the assay on VEGFA (class symbols), the pIC50 is 5.82 to 6.30. `N#Cc1cc(-n2c(F)c(-c3cccs3)c3c2CCC(F)(F)C3O)ccc1F` (stereo not drawn) [Example 106, 2-fluoro-5-(2,5,5-trifluoro-4-hydroxyl-3-(thien-2-yl)-4,5,6,7-tetrahydro-1H-indol-1-yl)benzonitrile] had a pIC50 with VEGFA of 7.82.
